Measurements published in patent US20250281497A1, “FUSED AMINO PYRIMIDINE COMPOUNDS FOR TREATMENT OF SEIZURE DISORDERS” (Ovid Therapeutics Inc., priority 2024, published 2025).

Molecular target: T1, KCC2 (Homo sapiens, UniProt Q9H2X9)
T1 construct: expressed in transfected cells; host or cells: HEK-293 (ATCC CRL-1573)
T1 sequence (Q9H2X9 1-1116 isoform Q9H2X9-2): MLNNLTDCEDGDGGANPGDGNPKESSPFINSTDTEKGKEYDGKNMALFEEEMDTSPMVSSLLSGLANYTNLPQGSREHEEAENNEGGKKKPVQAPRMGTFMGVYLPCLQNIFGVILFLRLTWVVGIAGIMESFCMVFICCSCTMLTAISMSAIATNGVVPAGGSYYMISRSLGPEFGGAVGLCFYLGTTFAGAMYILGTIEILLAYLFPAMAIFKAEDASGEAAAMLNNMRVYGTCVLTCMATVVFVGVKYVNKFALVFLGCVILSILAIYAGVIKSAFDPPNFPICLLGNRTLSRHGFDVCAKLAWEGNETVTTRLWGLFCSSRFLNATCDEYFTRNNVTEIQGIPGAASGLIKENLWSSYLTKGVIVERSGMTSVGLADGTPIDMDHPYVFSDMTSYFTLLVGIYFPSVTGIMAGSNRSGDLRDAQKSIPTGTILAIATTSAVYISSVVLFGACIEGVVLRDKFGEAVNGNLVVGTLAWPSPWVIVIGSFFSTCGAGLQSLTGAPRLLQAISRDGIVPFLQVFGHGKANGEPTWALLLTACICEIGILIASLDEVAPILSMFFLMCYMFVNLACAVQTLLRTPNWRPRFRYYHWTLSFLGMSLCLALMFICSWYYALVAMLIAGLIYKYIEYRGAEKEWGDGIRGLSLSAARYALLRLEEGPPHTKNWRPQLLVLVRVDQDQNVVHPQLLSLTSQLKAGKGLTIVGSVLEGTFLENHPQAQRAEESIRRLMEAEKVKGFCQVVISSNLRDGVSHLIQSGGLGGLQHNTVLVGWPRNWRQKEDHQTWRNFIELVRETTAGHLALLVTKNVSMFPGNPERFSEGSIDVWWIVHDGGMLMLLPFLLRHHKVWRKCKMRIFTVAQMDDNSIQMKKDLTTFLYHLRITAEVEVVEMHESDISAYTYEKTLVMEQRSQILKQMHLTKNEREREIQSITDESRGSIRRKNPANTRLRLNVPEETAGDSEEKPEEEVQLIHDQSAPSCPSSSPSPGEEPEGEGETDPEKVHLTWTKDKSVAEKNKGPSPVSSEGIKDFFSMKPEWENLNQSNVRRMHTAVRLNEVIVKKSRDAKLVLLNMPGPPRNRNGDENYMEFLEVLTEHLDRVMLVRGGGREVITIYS
Experiment: Surface biotinylation of KCC2 in HEK-293 cells
Assay type: cell-based
Conditions: 15 min
Experimental: Cell Culture and biotinylation. HEK-293 cells were purchased from ATCC (CRL-1573) and transfected with human KCC2 and GFP expression plasmids using Lipofectamine 2000. Cells were utilized for experimentation 48-72h following transfection. Cells were biotinylated at 4° C. using NHS-Biotin. Following lysis and purification on immobilized avidin beads, cell surface and total fractions were subject to immunoblotting as outlined previously (Conway et al., 2017, supra).
The reliability of the biotinylation procedure was assessed via immunoblotting with antibodies against the cytosolic protein actin. Actin was present in the total lysates but was absent from the surface fractions (FIG. 2C).

SMILES: C[C@@H]1CN(c2nc3c(c(Nc4ccc(C5CCCCC5)cc4)n2)COC3)CCO1 [Compound A, (R)—N-(4-cyclohexylphenyl)-2-(2-methylmorpholino)-5,7-dihydrofuro[3,4-d]pyrimidin-4-amine]
- KCC2 on the plasma membrane (surface/total) (0.3 μM): 94.5±8.4 % of control
- KCC2 on the plasma membrane (surface/total) (3 μM): 104.7±8.4 % of control
